Assay [1] has as its system cultured wild-type mouse astrocytes. Nature of the assay: Fura-2 intracellular Ca2+ imaging in cultured wild-type astrocytes. It counts as cell-based. The following applies: 30 μM TFLLR; for level of astrocytic intracellular Ca^2+ (Fura-2 fluorescence ratio): 10 μM bradykinin, 50 μM 2-methyl-thio-ATP, 10 μM ATP, 30 nM thrombin; for effect on TFLLR-induced Ca^2+ response: 1 μM BMS200261, 1 μM thapsigargin, 50 μM BAPTA-AM 30 min, 2 μM U-73122 10 min. The procedure:
Cultured astrocytes were prepared from P0-P3 postnatal mice obtained from KIST SPF. The cerebral cortex was dissected free of adherent meninges, minced, and dissociated into single cell suspension by trituration through a Pasteur pipette. All procedures involving the use of animals were reviewed and approved by the Emory University IACUC. Dissociated cells were plated onto either 12 mm glass coverslips or 6 well plates coated with 0.1 mg/ml poly-D-lysine. Cells were grown in a DMEM media (Gibco, cat# 11960-044) supplemented with 25 mM glucose, 10% heat-inactivated horse serum, and 10% heat-inactivated fetal bovine serum, 2 mM glutamine, and 1000 units/ml penicillin-streptomycin. Cultures were maintained at 37° C. in a humidified 5% CO2-containing atmosphere. […] In some experiments, the culture media was replaced 24 hours after plating with DMEM with all added components except glutamine, and cultures were maintained for 4 days before experimentation in glutamine-free media.
Cultured astrocytes were incubated with 5 µM Fura2-AM in […] pluronic acid (Molecular Probes) for 30 min at room temperature, and subsequently transferred to a microscope stage for imaging. The external solution contained 150 mM NaCl, 10 mM HEPES, 3 mM KCl, 2 mM CaCl2, 2 mM MgCl2, and 5.5 mM glucose, and the pH was adjusted to pH 7.3 and osmolarity to 325 mOsm. Intensity images of a 510 nm wavelength were taken at 340 nm and 380 nm excitation wavelengths using either a Micromax Camera (Princeton) or an intensified video camera (PTI), and the two resulting images were used for ratio calculations using Axon Imaging Workbench version 2.2.1.

Another assay has as its system CA1 pyramidal neurons. Nature of the assay: Ca2+ dye imaging of CA1 pyramidal neurons in hippocampal slices. Format: cell-based, rat. The following applies: thrombin 30 nM, TFLLR 30 μM, trans-ACPD 100 μM, (S)-3,5-dihydroxyphenylglycine 30 μM. The procedure: Young rats (Sprague-Dawley, age P15-P20) or mice (C57/B16, age P14-19) were deeply anesthetized with isoflurane and decapitated. The brain was rapidly removed and submerged in an ice-cold oxygenated artificial cerebrospinal fluid (ACSF) comprised of 130 mM NaCl, 24 mM NaHCO3, 3.5 mM KCl, 1.25 mM NaH2PO4, 1 mM CaCl2,3 mM MgCl2, and 10 mM glucose saturated with 95% O2/5% CO2, at pH 7.4.
The external solution contained 1 μM TTX. Throughout the experiments, −5 mV voltage steps (15 ms duration) were applied at 30 sec intervals from a holding potential of −70 mV to continuously monitor the holding current, series resistance, and membrane input resistance. After entering whole-cell mode, the CA1 pyramidal cells in slices were maintained for 20 min to allow for dye filling before image acquisition using a Princeton Micromax camera.
After the baseline period, TFLLR (30-100 μM) was applied, and images were acquired every 3 sec with a 25 ms exposure to 450-490 nm light for each image. Ca^2+-dependent fluorescence intensity (520 nm) was measured in cell bodies and processes by using Axon Imaging Workbench (v2.2.1) and expressed as ratio image of (F-Fo)/Fo, where Fo is the fluorescence intensity before drug treatment.

The subject of another assay is PAR1−/− mouse astrocytes. Nature of the assay: Fura-2 intracellular Ca2+ imaging in cultured PAR1−/− astrocytes. It counts as cell-based. The conditions noted are these: 30 μM TFLLR, 30 nM thrombin, 10 μM ATP positive control. The procedure: Cultured astrocytes were prepared from P0-P3 postnatal mice obtained from KIST SPF. The cerebral cortex was dissected free of adherent meninges, minced, and dissociated into single cell suspension by trituration through a Pasteur pipette. All procedures involving the use of animals were reviewed and approved by the Emory University IACUC. Dissociated cells were plated onto either 12 mm glass coverslips or 6 well plates coated with 0.1 mg/ml poly-D-lysine. Cells were grown in a DMEM media (Gibco, cat# 11960-044) supplemented with 25 mM glucose, 10% heat-inactivated horse serum, and 10% heat-inactivated fetal bovine serum, 2 mM glutamine, and 1000 units/ml penicillin-streptomycin. Cultures were maintained at 37° C. in a humidified 5% CO2-containing atmosphere. Astrocyte cultures prepared in this way were previously determined by GFAP (glial fibrillary acidic protein) staining to be greater than 95% astrocytes (Nicole et al., 2005). In some experiments, the culture media was replaced 24 hours after plating with DMEM with all added components except glutamine, and cultures were maintained for 4 days before experimentation in glutamine-free media.
Cultured astrocytes were incubated with 5 µM Fura2-AM in […] pluronic acid (Molecular Probes) for 30 min at room temperature, and subsequently transferred to a microscope stage for imaging. […]

Another assay relates to wild-type astrocytes. Description: Sniffer-patch detection of glutamate release, GluR1(L497Y)-transfected HEK cells on wild-type astrocytes. It counts as cell-based, mouse. The procedure:
HEK 293 cells (ATCC1573) were plated onto 12 mm glass coverslips coated with 5-10 ug/ml poly-D-lysine and grown in a DMEM media (Gibco, cat# 11960-044) supplemented with 25 mM glucose, 10% heat-inactivated horse serum, and 10% heat-inactivated fetal bovine serum, 2 mM glutamine, and 1000 units/ml penicillin-streptomycin (Banke & Traynelis, 2000; Traynelis & Wahl, 1996). The obtained cultures were maintained at 37° C. in a humidified 5% CO2-containing atmosphere.
HEK 293 cells were transfected with a 1:3.5 ratio of GFP and GluR1(L497Y) using the calcium phosphate method using effectence for 6-8 hours, after which the media was replaced and supplemented with 1 mM kynurenic acid and 10 μM N-(4-hydroxyphenylpropanoyl) spermine or 10 μM CNQX. The transfected HEK cells were subsequently trypsinized and replated onto astrocyte feeder layers derived from either wild-type or PAR1−/− mice 24 hours post-transfection, and recordings performed 24 hours after replating.
(§1) Whole-cell perforated-patch recording from cultured cortical neurons or HEK cells under voltage clamp (holding potential −60 mV) was made with an Axopatch 200B amplifier (Axon Instruments, Union City, Calif.). The recording chamber was continually perfused with a recording solution comprised of 150 mM NaCl, 3 mM KCl, 2 mM CaCl2, 5.5 mM glucose, and 10 mM HEPES (pH 7.4 by NaOH; osmolality adjusted to 315-320 mOsm with sucrose). Recording electrodes (4-7 MΩ) were filled with (in mM) 150 mM CsMeSO4, 10 mM NaCl, 0.5 CaCl2, 10 mM HEPES, and 25-50 μg/ml gramicidin D (pH adjusted to 7.3 with CsOH and osmolality adjusted to 310 mOsm with sucrose). It took 20-30 min to achieve acceptable perforation with series resistance ranging from 30-60 MΩ. All electrophysiological data from cultured neurons cells in this study were collected at room temperature (23-26° C.).
Thus, this technique provides millisecond time resolution for the detection of micromolar levels of glutamate released from astrocytes.
GluR1(L497Y)-transfected HEK cells were directly plated onto an astrocyte monolayer, and subsequently the whole cell HEK current response under voltage clamp during a brief 0.2 sec application of the PAR1 activator TFLLR (500 μM), ATP (300 μM), or bradykinin (180 μM), respectively, from a pressurized pipette was recorded (FIGS. 5a, and 5b).
Concentration(t)=EC50[response(t)/(100−response(t))]^(1/n) (Formula 1)

The test system of the next assay is cultured astrocytes. Nature of the assay: 3H-glutamate release assay in cultured wild-type astrocytes. It counts as cell-based, mouse. The conditions noted are these: 50 μM BAPTA-AM 30 min; 50 μM trans-PDC present or absent. As for the experimental part:
Astrocytes obtained in the above Example 1.1 were loaded with 0.5 μM L-3H-glutamate for 60 min by adding […] of 1 mCi/ml L-3H-glutamate stock solution to 2 ml of DMEM culture media.
Cells were washed with an external solution 3 times.
Agonists (TFLLR 30 μM) were added to the external solution for 6 min and the experiment was terminated by collection of the solution. Each experimental run included a control condition in which no agonist was added. Six replicates were obtained for each drug condition. For analysis, the average radioactivity count was obtained from 6 replicates for each condition and this average was compared to the average of the control condition.
Cells were washed with an external solution and subsequently TFLLR (30 μM) was added for 6 min. […] In the top panel, the thick boxes represent cells in culture media and the white boxes represent cells in external solution.

Another assay deals with cultured neurons. Nature of the assay: Sniffer-patch glutamate release from cultured neurons. Format: cell-based. The following applies: 10 μM CNQX, 530 mOsm. As for the experimental part:
To verify this prediction, effects of a hyperosmotic solution on the glutamate-release from cultured neurons and astrocytes were evaluated and are shown in FIGS. 7a to 7c.
The detection is abolished by the treatment of 10 μM CNQX.

Assay [2] relates to PAR1−/− cortical neurons on wild-type astrocyte monolayer. Description: PAR1−/− cortical neurons co-cultured on wild-type astrocytes: dendritic Ca2+ and voltage clamp. The following applies: 300 μM TFLLR pressure-applied to astrocytes; 50 μM NMDA. It counts as cell-based, mouse. As for the experimental part:
For an astrocyte-neuron co-culture, a monolayer of wild-type astrocytes was grown to 70-100% confluency (7-14 days in culture). Subsequently, the cortex from a P0 to P5 PAR1−/− mouse (Connolly et al., 1996) was dissected free of meninges and digested for 30 min in 1 mg/ml trypsin at 37° C. PAR1−/− mice were >99% C57B1/6 (>7 backcrossings), and wild-type mice were from a colony derived from PAR1−/− littermates.
All experiments were done within 3 generations of establishing the homozygous colony. The cortical cells were plated at low density on top of the monolayer of wild-type astrocytes obtained in above Example 1.1. Neurons were used for Ca^2+ imaging after 1-5 days in culture.
as §1
After a 20 min recovery, the bath perfusion was stopped and TFLLR was applied by brief (<1 sec) pressure ejection onto the astrocyte hosting the dye-loaded neuron in a static bath condition. Changes in fluorescence were monitored in a number of dendritic processes (schematized in FIGS. 8a and 8b).

A further assay concerns the target T1, GluR1(L497Y) (Rattus norvegicus, UniProt P19490, L497Y).
T1 construct: expressed in transfected cells; host or cells: HEK 293 cells (ATCC1573)
Nature of the assay: Glutamate activation of GluR1(L497Y) in transfected HEK cells. Format: cell-based. As for the experimental part: HEK 293 cells were transfected with a 1:3.5 ratio of GFP and GluR1(L497Y) using the calcium phosphate method using effectence for 6-8 hours, after which the media was replaced and supplemented with 1 mM kynurenic acid and 10 μM N-(4-hydroxyphenylpropanoyl) spermine or 10 μM CNQX.
as §1

Another assay relates to glutamate transporters. The conditions noted are these: read-out: IC50 glutamate uptake block; Mitrovic & Johnston, 1994; cited from earlier work.

T1 sequence (P19490 19-907 L497Y): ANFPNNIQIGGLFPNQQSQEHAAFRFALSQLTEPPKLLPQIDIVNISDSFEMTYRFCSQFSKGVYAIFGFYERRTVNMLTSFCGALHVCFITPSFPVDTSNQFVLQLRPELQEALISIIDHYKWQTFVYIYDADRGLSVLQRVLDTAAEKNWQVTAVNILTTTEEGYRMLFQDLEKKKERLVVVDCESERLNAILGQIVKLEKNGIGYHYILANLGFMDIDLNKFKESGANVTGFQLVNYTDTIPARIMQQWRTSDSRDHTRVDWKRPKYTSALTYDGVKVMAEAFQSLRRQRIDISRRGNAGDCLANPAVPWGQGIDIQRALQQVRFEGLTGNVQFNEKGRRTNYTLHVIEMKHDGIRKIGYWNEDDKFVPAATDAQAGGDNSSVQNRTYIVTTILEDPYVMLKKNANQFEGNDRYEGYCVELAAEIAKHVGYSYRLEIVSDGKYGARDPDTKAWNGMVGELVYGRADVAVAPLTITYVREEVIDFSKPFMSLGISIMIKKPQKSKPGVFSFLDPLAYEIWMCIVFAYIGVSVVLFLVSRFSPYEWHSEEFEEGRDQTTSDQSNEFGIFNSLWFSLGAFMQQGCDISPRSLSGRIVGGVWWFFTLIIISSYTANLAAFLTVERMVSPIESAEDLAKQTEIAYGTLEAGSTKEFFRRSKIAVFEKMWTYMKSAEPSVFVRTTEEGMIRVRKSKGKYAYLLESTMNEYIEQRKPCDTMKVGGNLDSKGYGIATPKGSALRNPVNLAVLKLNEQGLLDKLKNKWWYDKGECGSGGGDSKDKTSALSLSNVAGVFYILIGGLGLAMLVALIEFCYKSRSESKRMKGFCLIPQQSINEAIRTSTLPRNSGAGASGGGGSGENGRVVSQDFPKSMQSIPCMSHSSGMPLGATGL

In the case of `CSc1nc(N)c2ncn([C@@H]3O[C@H](COP(=O)(O)OP(=O)(O)OP(=O)(O)O)[C@@H](O)[C@H]3O)c2n1` [2-methyl-thio-ATP], in [1], the “level of astrocytic intracellular Ca^2+ (Fura-2 fluorescence ratio)” value is “increase”.
Turning to `N[C@H](C(=O)O)c1cc(O)cc(O)c1` [(S)-3,5-dihydroxyphenylglycine], the “somatic fluorescence of Ca^2+-sensitive dyes in CA1 pyramidal neurons” value with CA1 pyramidal neurons is recorded as “strong increases”.
Turning to `Nc1ncnc2c1ncn2[C@@H]1O[C@H](COP(=O)(O)OP(=O)(O)OP(=O)(O)O)[C@@H](O)[C@H]1O` [ATP], the “intracellular Ca^2+ concentration in PAR1−/− astrocytes” value in the assay with PAR1−/− mouse astrocytes is on record as “still responded”. For the same compound, the “level of astrocytic intracellular Ca^2+ (Fura-2 fluorescence ratio)” value in assay [1] was “increase”. Besides, the “inward current in adjacent GluR1(L497Y)-transfected HEK cell” value in the assay on wild-type astrocytes (brief pressure application 500 μM TFLLR, 300 μM ATP, 180 μM bradykinin) is “elicited an inward current”. In addition, in the assay with wild-type astrocytes (wild-type astrocytes, converted from current by Formula 1), the peak glutamate concentration was about 5.9 µM.
In the case of `CC(=O)OCOC(=O)CN(CC(=O)OCOC(C)=O)c1ccccc1OCCOc1ccccc1N(CC(=O)OCOC(C)=O)CC(=O)OCOC(C)=O` [BAPTA-AM, 1,2-bis(2-aminophenoxy)ethane-N,N,N′,N′-tetra-acetic acid acetoxymethyl ester], the “effect on TFLLR-induced glutamate release” value with cultured astrocytes is “blocked”.
For `N#Cc1cc2[nH]c(=O)c(=O)[nH]c2cc1[N+](=O)[O-]` [CNQX], in the assay with wild-type astrocytes (10 μM CNQX), the “effect on TFLLR-evoked inward current in GluR1(L497Y) HEK cell” value is “reversibly inhibits”. Also, in the assay with wild-type astrocytes (glutamine-free medium), the “effect on TFLLR-evoked inward currents, glutamine-free medium” value is “completely abolished”. Moreover, the “effect on detection of hyperosmotic-solution evoked neuronal glutamate release” value in the assay on cultured neurons was “abolished”.
Turning to `CN[C@H](CC(=O)O)C(=O)O` [NMDA, N-methyl-D-aspartic acid], the “intra-neuronal Ca^2+ in dendrites (Oregon Green BAPTA-2 fluorescence)” value in assay [2] is listed as “saturating response”.
As to `COc1ccc2c(c1)CC[C@@H]1[C@@H]2CC[C@]2(C)[C@@H](NCCCCCCN3C(=O)C=CC3=O)CC[C@@H]12` [U-73122], the “effect on TFLLR-induced Ca^2+ response” value in assay [1] is given as “similarly blocked”.
`N[C@@H](CCC(=O)O)C(=O)O` [glutamate] registered a Hill slope at GluR1(L497Y) of 1.3.
Turning to `C/C=C(/C)C(=O)O[C@H]1C(C)=C2[C@H]([C@@H]1OC(=O)CCCCCCC)[C@@](C)(OC(C)=O)C[C@H](OC(=O)CCC)[C@@]1(O)[C@H]2OC(=O)[C@@]1(C)O` [thapsigargin], the “effect on TFLLR-induced Ca^2+ response” value in [1] was “blocked”.
Turning to `O=C(O)[C@H]1CN[C@H](C(=O)O)C1` [trans-PDC, L-transpyrrolidine-2,4-dicarboxylic acid], the IC50 in the assay on glutamate transporters is 4 to 8 µM. Moreover, in the assay with cultured astrocytes, the “effect on TFLLR-induced glutamate release” value is “indistinguishable”.
Take “trans-Cinnamoyl-F(f)-F(Gn)L-Arg-Arg-NH2 [BMS 200261]”: in [1], the “effect on TFLLR-induced Ca^2+ response” value is “reversibly and completely antagonized”.

Broadly, the Hill slope is the slope factor of the fitted curve. The IC50 is the concentration that gives 50% inhibition.

Source of the values: US20080299109A1, “MECHANISM OF ASTRICYTE-NEURON SIGNALING” (Korea Institute of Science and Technology, priority 2007, published 2008).
